Measurements from PMC10994559 (PLOS Neglected Tropical Diseases, 2024).
Read-outs that look alike come from different tables or passages of the source.

Key:
[1] = tested on: T. brucei brucei BSF; assay: T. brucei BSF viability, resazurin reduction; format: cell-based, Trypanosoma brucei brucei; conditions: Trypanosoma brucei; for viability at 25 µM: read-out: viability, T.brucei (25 µM)
Method: T. brucei brucei (strain 427 Lister) blood stream form (BSF) parasites were passaged in complete HMI-9 media supplemented with 10% FCS, Pen-Strep (0.1%) and 2-mercaptoethanol (0.014 v/v) and kept in a 37° C CO2 incubator in filter-cap flasks.
(§1) Viability of T. brucei brucei BSF and T. cruzi trypomastigotes was assayed with fluorescence resazurin reduction assay, essentially as described above. […] Next, selected compounds were tested at 2.5 μM concentration, and promising compounds subjected to 18 concentrations dose response analyses. AN3057 and AmB were used as a control drug in T. brucei and T. cruzi, respectively.

[2] = tested on: L. major axenic amastigotes; assay: L. major axenic amastigote viability, resazurin reduction; conditions: Leishmania major; for viability at 25 µM: read-out: viability, L.major amastigote (25 µM)
Method: L. major LV561(MHOM/IL/67/LRC-L137 JERICHO II) amastigotes were passaged in Grace insect medium supplemented with NaHCO3, 0.1% amikin and 20% of FCS (pH: 5.4) and kept at 33°C.
Exponential growth phase promastigotes of L. major or L. infantum and axenic amastigotes (L. major) were harvested and seeded in 384 well plates (white, non-transparent, tissue culture treated, flat bottom; Corning) (0.5x10^5 cells per well). Compounds were pre-dispensed into the plate with an Echo 650 acoustic dispenser (Beckman Coulter). After 72h incubation, resazurin was added (1:10 v/v) from a […] stock in PBS, followed by incubation for six hours. Then, fluorescence intensity was measured using a microplate reader (Synergy H1, BioTek) with excitation filter: 550 nm and emission filter: 590 nm. Efficient compounds were selected for the next round of viability assay with 2.5 μM concentrations of the compounds. […] All experiments were performed with AmB as a positive control drug in parallel.
Axenic amastigotes, the relevant form that persists in the infected host, were generated in the lab through established procedures, employing harsh pH (pH 5) and high temperature (33°C) conditions.

[3] = Cytotoxicity assay J774, resazurin reduction; format: cell-based, murine; conditions: mouse, J774 macrophage cells; for viability at 72 h, 2.5 µM: read-out: viability, J774 (2.5 µM); for viability at 72 h, 25 µM: read-out: viability, J774 (25 µM)
Method: (§2) Mammalian cell lines (J774 and HepG2) were passaged in RPMI media supplemented with MEM, Pen-Strep (1%) and 10% FCS. Cultures were kept at 37°C incubator with 5% CO2 in filter-cap flasks.
(§3) Murine macrophage cells (J774) and human hepatocyte carcinoma HepG2 cells were seeded at 0.5x10^5 cell/well in 384 well plates in triplicate, exposed to serial dilution of compounds, dispensed using an Echo 650 acoustic dispenser (Labcyte). After incubation for 72 h at 37°C, 5% CO2, cell viability was determined using fluorescence resazurin reduction assay (λEx: 550 nm; λEm: 590 nm).

[4] = tested on: L. infantum promastigotes; assay: L. infantum promastigote viability, resazurin reduction; format: cell-based, Leishmania infantum; conditions: Leishmania infantum, sheet LTC_compound_viability, value ± spread; for viability at 2.5 µM: read-out: viability, L. infantum promastigote (2.5 µM); for viability at 25 µM: read-out: viability, L. infantum promastigote (25 µM)
Text: (§4) The infectivity of the parasites was boosted by passaging in Balb/c mice and culturing the infected lymph nodes after six weeks. L. infantum (MHOM / BR / 76 / M4192) parasite was passaged in the same media formulation with 0.5% urine.

[5] = tested on: T. cruzi trypomastigotes; assay: T. cruzi viability, resazurin reduction; format: cell-based, Trypanosoma cruzi; conditions: Trypanosoma cruzi; for viability at 2.5 µM: read-out: viability, T.cruzi (2.5 µM); for viability at 25 µM: read-out: viability, T.cruzi (25 µM)
Method: T. cruzi (Y strain) trypomastigotes were passaged in liver infusion broth media supplemented with tryptose, NaCl, Na2HPO4, KCl, glucose, hemin, Pen-Strep (1%), 10% FCS (pH: 7.2) and kept at 28°C.
as §1

[6] = tested on: E. histolytica; assay: E. histolytica viability, ATP luminescence (Cell titer glo); format: cell-based, Entamoeba histolytica; conditions: Entamoeba histolytica; for viability at 2.5 µM: read-out: viability, E.histolytica (2.5 µM); for viability at 25 µM: read-out: viability, E.histolytica (25 µM)
Method: Entamoeba histolytica (strain B2-5) was passaged in TY-1 medium (Trypticase peptone BBL, Yeast extract BBL, glucose, NaCl, K2HPO4, KH2PO4, cysteine, ascorbic acid, ammonium iron citrate, adult bovine serum, Diamond tween 80, penicillin G, amikacin (pH:6.8)) and kept in 37°C incubator in completely filled tubes with closed lid.
Viability of E. histolytica was assayed via a luminescence assay based on ATP quantification in the live cells. Briefly, 2.5x10^4 cell/ml were exposed to 25 μM of compounds in 96 well plates (non-transparent, tissue culture treated, flat bottom; SPL Life Sciences) in triplicate for 48h. Plates were incubated in sealed anaerobic bags (Oxoid AGS) together with an Anaerogen compact bag (Thermo Scientific) and anaerobic indicator (Thermo Scientific) at 37°C. Then, Cell titer glo reagent (Promega) was added to the reaction (1:5) according to manufacturers’ instruction. After 15 min of orbital shaking, followed by 10 min incubation at RT, ATP-bioluminescence was quantified at RT using a Synergy H1 plate reader (Synergy H1, BioTek). Metronidazole was included as control drug in all the assays for E. histolytica. Test compounds indicating significant growth reduction in the primary screen were subjected to potency determination. These secondary screens were essentially carried out as detailed above, but with a 9 to 16-point concentration range of the test compounds spanning 0.01–100 μM.

[7] = tested on: L. major promastigotes; assay: L. major promastigote viability, resazurin reduction; format: cell-based, Leishmania major; conditions: Leishmania major, read-out: viability, L.major promastigote (25 µM)
Text: as §4

[8] = tested on: intracellular L. infantum amastigotes; assay: Parasite rescue assay (intramacrophage, J774 infected with L. infantum); format: cell-based, Leishmania infantum; conditions: J774, 25 µM; intracellular amastigote; read-out: viability, intracellular L. major amastigote (25 µM)
[9] = tested on: intracellular L. infantum amastigotes; assay: as above; format: cell-based, Leishmania infantum
Method: After 24 h incubation, cells were washed five times with serum free RPMI and exposed to a serial dilution of test compounds, prepared using an acoustic dispenser (Echo 650, Labcyte), in RPMI (2% FCS). After two days, cells were washed thrice, and 20 μl of 0.05% SDS in RPMI was added upon removal of the supernatant. Upon incubation under orbital shaking for 30 seconds, cell lysis was stopped by addition of 180 μl M199 medium supplemented with 10% FCS. […] Then, fluorescence intensity of the samples was measured with a microplate reader (Synergy H1, BioTek) with λEx: 550 nm and λEm: 590 nm. Percent of viability was calculated according to cell only and media controls.
J774A.1 cells (J774) were infected with L. infantum metacyclic promastigotes. […] After controlled lysis of the infected macrophages, the released parasites were quantified using a resazurin based viability assay.

[10] = tested on: Murine macrophage cells (J774); assay: Cytotoxicity assay J774, resazurin reduction; format: cell-based; conditions: cytotoxicity, 72 h
Method: as §2, §3

[11] = 2.5 µM, read-out: viability, T.brucei (2.5 µM)

| SMILES | viability at 2.5 µM [1, 11] [%] | viability at 25 µM [1] [%] | viability at 25 µM [2] [%] | viability at 72 h, 2.5 µM [3] [%] | viability at 72 h, 25 µM [3] [%] | melting point [°C] | viability at 2.5 µM [4] [%] | viability at 25 µM [4] [%] | viability at 2.5 µM [5] [%] | viability at 25 µM [5] [%] | viability at 2.5 µM [6] [%] | viability at 25 µM [6] [%] | viability at 25 µM ([7]; 72 h) [%] | viability at 25 µM ([7]; 25 µM) [%] | viability at 25 µM [8] [%] | other results |
| --- | --- | --- | --- | --- | --- | --- | --- | --- | --- | --- | --- | --- | --- | --- | --- | --- |
| N[C@@H](Cc1ccccc1)[C@@H](O)CNc1ccc(F)cc1 [LTC-1026, (2S,3S)-3-Amino-1-((4-fluorophenyl)amino)-4-phenylbutan-2-ol] | 71.2 ± 5.23 | 2.26 ± 0.92 | 59.5 ± 7.56 | 94.6 ± 3.96 | -0.01 ± 0.89 | 88 to 90 | 84.16 ± 0.61 | 56.98 ± 0.29 | 58.6 ± 1.12 | 57.8 ± 6.73 | 65.6 ± 10.1 | 113 ± 30.5 | 93.3 ± 1.34 | 34.1 ± 3.37 | 102 ± 4.55 |  |
| N[C@@H](Cc1ccccc1)[C@@H](O)CNc1ccc(C(F)(F)F)cc1 [LTC-1027, (2S,3S)-3-Amino-4-phenyl-1-((4-(trifluoromethyl)phenyl)amino)butan-2-ol] | 11.2 ± 1.8 | 2.27 ± 0.89 | 75.5 ± 3.25 | 96.1 ± 4.11 | 99.9 ± 8.05 | 105 to 107 | 77.9 ± 1.82 | 0.64 ± 0.3 | 61.8 ± 2.34 | 12 ± 0.47 | 79.1 ± 9.1 | 2.09 ± 3.63 | 72.2 ± 16.2 | -0.24 ± 0.15 | 79.3 ± 16.4 |  |
| N[C@@H](Cc1ccccc1)[C@@H](O)CNc1ccc(OC(F)(F)F)cc1 [LTC-1028, (2S,3S)-3-Amino-4-phenyl-1-((4-(trifluoromethoxy)phenyl)amino)butan-2-ol] | 19.7 ± 4.81 | 2.01 ± 0.92 | 59.3 ± 3.42 | 97.4 ± 5.26 | -0.47 ± 0.78 | 112 to 114 | 78.3 ± 1.53 | 0.58 ± 0.24 | 61 ± 0.78 | 12.4 ± 0.9 | 71.9 ± 4.72 | 37.8 ± 19.9 | 81.6 ± 2 | 0.32 ± 0.34 | 79.1 ± 22 |  |
| N[C@@H](Cc1ccccc1)[C@@H](O)CNc1cccc(C(F)(F)F)c1 [LTC-1029, (2S,3S)-3-Amino-4-phenyl-1-((3-(trifluoromethyl)phenyl)amino)butan-2-ol] | -0.97 ± 0.28 | 2.21 ± 0.85 | 67.9 ± 2.07 | 94.9 ± 4.03 | 91.9 ± 10.1 | 72 to 74 | 82.2 ± 2.25 | 0.37 ± 0.05 | 56.8 ± 2.34 | 6.68 ± 2.95 | 70.3 ± 18.1 | 15.4 ± 5.25 | 88.9 ± 5.45 | -0.13 ± 0.19 | 76.8 ± 12.2 | viability at 2.5 µM ([1]; 72 h, read-out: Residual viability, T.brucei (2.5 µM), BSF, 2.5 µM, 72 h): < 10% |
| CC(=O)c1ccc(NC[C@H](O)[C@@H](N)Cc2ccccc2)cc1 [LTC-1031, 1-(4-(((2S,3S)-3-Amino-2-hydroxy-4-phenylbutyl)amino)phenyl)ethan-1-one] | 75.5 ± 4.37 | 2.18 ± 0.95 | 70.9 ± 2.23 | 95.4 ± 4.41 | -0.69 ± 0.73 | 123 to 125 | 83.7 ± 2.96 | 44.9 ± 6.2 | 58.4 ± 1.11 | 59.3 ± 2.74 | 74.1 ± 12.7 | 105 ± 18.2 | 91.6 ± 2.08 | 62.7 ± 3.51 | 98 ± 5.56 |  |
| CC(C)(C)OC(=O)NC(Cc1ccccc1)C(O)CNc1ccc(C(C)(C)C)cc1 (stereo not drawn) [LTC-1035] | 71.2 ± 5.31 | 2.22 ± 0.96 | 27.7 ± 0.6 | 92.3 ± 5.33 | 95.4 ± 11.3 |  | 68.3 ± 1.6 | 0.84 ± 0.54 | 63.9 ± 2.75 | 25.6 ± 1.61 | 48.5 ± 2.26 | 101 ± 21.2 | 89.5 ± 1.08 | 2.19 ± 1.75 | 11.4 ± 1.86 | EC50 ([9]; Leishmania infantum, J774, read-out: EC50 L. infantum rescue assay, intramacrophage (J774), 18 concentrations): 6.7 ± 1.7 µM; EC50 ([9]; read-out: EC50 L. infantum rescue assay, intramacrophage (J774), 18 concentrations): 6.67 ± 1.7 µM; EC50 ([1]; read-out: EC50 T. brucei BSF, dose response, triplicate, ± SD (Table 2) / ± SE (S3 Table)): 2.9 ± 1.7 µM; viability at 2.5 µM ([2]; read-out: viability, L.major amastigote(2.5 µM)): 71.4 ± 0.91%; EC50 ([10]; Mus musculus, J774, 72 h): > 25 µM; EC50 [10]: > 16 µM |
